Experimental data published in a melting point compilation (Tetko et al.; mined from patent text by program, amines drawn as free bases though some values may be those of a salt).
Residues, ends and D or L forms follow the SMILES beside them. *: point of attachment. Cbz = O=C(OCc1ccccc1)*; tBu = CC(C)(C)*

melting point | Structure (SMILES)
101 to 105 °C | CNS(=O)(=O)CCc1ccc(N)cc1
142 to 144 °C | O=C(CC(=O)C1CC1)c1ccc2snnc2c1
106 to 107 °C | COC(=O)C(Cc1ccccc1)NC(=O)C(Cc1ccc(OC(C)(C)C)cc1)NC(=O)OCc1ccccc1 (stereo not given) (Cbz-Tyr(tBu)-Phe-OMe; configuration not given here)
170 to 172 °C | CC/C(=C(\c1ccc(/C=C/C(=O)O)cc1)c1ccc(OC(=O)c2ccco2)cc1)c1ccccc1
96 to 99 °C | CCCCCCCCCCCCCCOc1cccc(C(=O)N(CC(=O)O)CC(=O)O)c1
190 to 192 °C | CS(=O)(=O)c1ccc(-c2cnn(-c3ccc(Cl)s3)c(=O)c2-c2ccc(F)cc2)cc1
240 to 242 °C | CN(C)CCNc1ccc(-c2nn(CC(=O)O)c3ncccc23)cc1
101 to 104 °C | CCCCCCCCNC(=O)Cc1c(C)cc(C(C)(C)C)c(O)c1C
140 to 141 °C | COc1ccc(Cc2cnc(NCCc3ccccc3Cl)nc2N2CCc3cc(OC)c(OC)cc3C2)cc1OC
81 to 85 °C | COC(=O)c1ccc(OCCNC(=O)C2Cc3ccccc3N2S(=O)(=O)c2ccc(-c3ccc(F)cc3)cc2)c(C)c1 (stereo not given)
163 to 166 °C | Nc1cccc(OC2CCCCO2)c1O (stereo not given)
109 to 112 °C | CN(C(=O)OC(C)(C)C)C1C2CCC1CN(CC(O)COc1ccc(C#N)cc1)C2 (stereo not given)
177 to 178 °C | O=Cc1ccc2ccc3c4ccccc4ccc3c2c1
84 to 92 °C | OCC1OC(n2cnc3c(NCC4(c5cccs5)CCC4)ncnc32)C(O)C1O (stereo not given)
221 °C | O=c1ccc2nc3ccccc3sc-2c1Cl
133 °C | CCCCCCC(=O)Nc1cccc2c1C(=O)c1ccccc1C2=O
162 to 164 °C | O=C1N(Cc2ccc(C(F)(F)F)o2)c2ccccc2C12COc1cc3c(cc12)OCCCO3 (stereo not given)
127 °C | CCCC1=NN(c2ccc(Br)cc2)C(=O)C1=CNc1ccccc1CC
149 to 152 °C | COc1cccc(OCc2cccc(OCc3ccc4ccccc4n3)c2)c1C(=O)O
210 to 211 °C | COc1ccc(Nc2ncc3c(n2)-c2sc(C)nc2CC3)cn1
315 to 317 °C | C=Cc1ccc(C(=O)O)cc1C12CC3CC(CC(C3)C1)C2
171 to 173 °C | CCC1c2cccn2-c2ccccc2N1S(=O)(=O)c1ccc(O)c(C)c1 (stereo not given)

melting point | Structure (SMILES)
139 to 140 °C | CC1Cc2ccc(Cl)cc2CN(CCO)C1=O (stereo not given)
132 to 134 °C | O=C1c2ccccc2COc2ccc(Br)cc21
200 to 204 °C | COc1ccc(CSc2ccc([N+](=O)[O-])cc2C(=O)O)cc1
111 to 112 °C | Cc1ccc(C2CCN(C(=O)CCC(=O)c3ccc4c(c3)CCN(C)CC4)CC2)cc1
224 to 225 °C | NC(=O)c1n[nH]c2c(=O)[nH]c3cc(Cl)ccc3c(=O)c12
> 300 °C | O=C1Nc2c(cc([N+](=O)[O-])cc2[N+](=O)[O-])C1c1ncnc2nn(C3CCCC3)cc12 (stereo not given)
170 to 171 °C | COC(=O)c1cc(-c2ccccc2)c(=O)n2c1-c1sc(Br)cc1CC2
107 to 108 °C | Cc1ccc(C)c2c1C(=O)N(CCl)S2(=O)=O
109 to 110 °C | COc1nc(-c2ccc(OC(C)C)cc2)sc1C(=O)O
106 to 132 °C | C[C@H](N)C(=O)N1CCC[C@H]1C(=O)O (H-Ala-Pro-OH)
137 to 139 °C | Cc1cc2c(s1)C(C(=O)O)CC2=O (stereo not given)
162 to 165 °C | O=C(O)C(Cc1ccsc1)N1C(=O)c2ccccc2C1=O (stereo not given)
208 to 210 °C | Cc1ccccc1S(=O)(=O)NC(=O)c1ccc2c(ccn2Cc2cccc([N+](=O)[O-])c2)c1
151 to 153 °C | CCOC(=O)c1csc(/C=C/c2cccc([N+](=O)[O-])c2)n1
203 °C | COC(=O)C1=C(C)NC(C)=C(S(=O)(=O)c2ccccc2)C1c1ccccc1[N+](=O)[O-] (stereo not given)
136 to 137 °C | CCOC(=O)C1=C(C)NC(C=NO)=C(C(=O)OCC)C1c1ccccc1Cl (stereo not given)
204 °C | O=C(Nc1ccc2cc(CN3CCCCCC3)cnc2c1)c1ccc(-c2ccc(Cl)cc2)cc1
134 to 136 °C | O=C(CCCCN1CCOCC1)c1ccc2c(c1)Cc1cc(C(=O)CCCCN3CCOCC3)ccc1-2
60 to 62 °C | Cc1cc(O)c(C)cc1O
210 to 211 °C | CCc1cc2c(cc1Oc1ccc(C(=O)O)cc1C)C(C)(C)CCC2(C)C
140 °C | c1ccc(-c2cc(CCC3CCNC3)c3ccccc3n2)cc1 (stereo not given)
67 to 68 °C | CC(C)(CCl)C(=O)COc1ccc(-c2ccc(Cl)cc2)cc1

melting point | Structure (SMILES)
151 to 153 °C | CC(C(=O)OC12CC3CC(CC(C3)C1)C2)c1ccc2nc(N)sc2c1 (stereo not given)
187 to 188 °C | Cc1nc(Sc2ccccc2)sc1C(=O)O
153 to 155 °C | CS(=O)(=O)NC(=O)c1cccc(N)c1
132 to 133 °C | O=S1NC(Cc2ccc3c(c2)OCO3)=NO1 (stereo not given)
178 to 180 °C | CC1(C)SCCN(S(=O)(=O)c2ccc(-c3ccc(Br)cc3)cc2)C1C(=O)O (stereo not given)
109 to 110 °C | CCCC1=C(C(=O)OCC)C(c2cccc([N+](=O)[O-])c2)C(C(=O)OCC)=C(CCC)N1COCC
103 to 104 °C | Cc1cc(F)ccc1Nc1nc(N(C)c2ccccc2)c2cc(OCCCN(C)C)ccc2n1
92 to 94 °C | CCOC(=O)C1CCCCC1Nc1cn[nH]c1 (stereo not given)
149 to 150 °C | Fc1ccccc1Cn1c(-c2ccc3c(c2)OCO3)nc2ccccc21
145 °C | CC(C)(C)OC(=O)N1CCN(c2ccc(N)cc2C#N)CC1
98 to 101 °C | COC(=O)C(CCSC)NC(=O)c1ccc([N+](=O)[O-])cc1-c1ccccc1 (stereo not given)
174 to 176 °C | C=Cc1ccc(NN2C(=O)c3ccccc3C2=O)cc1
257 °C | N#Cc1cc2c(cc1C(F)(F)F)[nH]c(=O)c(=O)n2OCC(=O)O
79 to 81 °C | CCCCCCCCCCCCCCN(c1ccccc1)c1snnc1C(N)=O
176 to 177 °C | COc1cc(Br)c2nc(-c3ccc(OC)c(F)c3)cc(Cl)c2c1
245 to 246 °C | Cn1cc(-c2ccc3nc(NC(=O)c4ccc(C(C)(C)C)cc4)cn3n2)cn1
202 to 206 °C | CN1CCN(c2cc3nc(C(C)(C)C)sc3cc2NC(=S)N2CCCCC2)CC1
220 °C | O=C(Nc1cccc2c1C1CCCCN1C2=O)Nc1ncccc1Br (stereo not given)
155 to 156 °C | O=C(O)C(=O)CC(=O)c1cccn1Cc1ccccc1F
130 to 131 °C | CC(C)C[C@H](NC(=O)OCc1ccccc1)C(=O)N[C@H]1CCOC1=O

Structure (SMILES) | melting point
CCCN1CCC(c2ccccc2)=C(C(=O)NCc2ccccc2)C1 | 96 to 98 °C
CC12CC(=O)C3C(CCC4CC(O)CCC43C)C1CCC2C(=O)COc1ccc([N+](=O)[O-])cc1 (stereo not given) | 186 to 187 °C
COc1ccc(CC(C)NCC(O)c2ccccc2Cl)cc1OC (stereo not given) | 113 to 114 °C
O=C(Cc1ccccn1)NC1CCC2(O)C3Cc4ccc(O)c5c4C2(CCN3CC2CC2)C1O5 (stereo not given) | 210 to 212 °C
CC1=NN=C(c2ccc([N+](=O)[O-])c(C)c2)c2cc3c(cc2C1)OCO3 | 189 to 194 °C
N#Cc1ccc(N2CCC(F)C2)c2ccsc12 (stereo not given) | 151 to 152 °C
